Data published in patent US9242001B2, “Cationic lipids for therapeutic agent delivery formulations” (Nitto Denko Corporation, priority 2011, dated 2016).

Tested on: gp46 mRNA
Assay: pHSC in vitro assay, gp46 gene knockdown by qRT-PCR
Format: cell-based, rat
Conditions: @ 50 nM

Compound | in vitro (pHSC) % KD
CCCCC/C=C\C/C=C\CCCCCCCC(=O)OCCN(CCOC(=O)CCCCCCC/C=C\C/C=C\CCCCC)C(=O)C[N+](C)(C)CCO.[Br-] [HEDC-DLin, 2-(bis(2-((9Z,12Z)-octadeca-9,12-dienoyloxy)ethyl)amino)-N-(2-hydroxyethyl)-N,N-dimethyl-2-oxoethanaminium bromide] | i. 50% @ 50 nM
CCCCCCCCCCCC(=O)OCCN(CCOC(=O)CCCCCCCCCCC)C(=O)C[N+](C)(C)CCO.[Br-] [HEDC-12, 2-(bis(2-(dodecanoyloxy)ethyl)amino)-N-(2-hydroxyethyl)-N,N-dimethyl-2-oxoethanaminium bromide] | i. 0% @ 50 nM
